Test results taken from ChEMBL document CHEMBL6153140, “Pestones A and B from a Fungus Pestalotiopsis sp. Bound to Mutant p53 and Changed Its Conformation” (J Nat Prod, 2025).
Activity calls are given as the source filed them. The rule behind the calls is not given here.

Assays:
SAOS-2 [1] = experiment: Effect on conformation of p53 […] mutant in human SAOS-2 cells at 100 uM incubated for 6 hrs by Hoechst 33342 staining based immunofluorescence analysis; assay type: functional, cell-based
[2] = Cytotoxicity against human SAOS-2 cells harboring p53 […] mutant incubated for 3 days by MTT assay; assay type: functional, cell-based; details: SAOS-2, 72 h
SAOS-2 [3] = experiment: Effect on conformation of p53 […] mutant in human SAOS-2 cells at 2 uM incubated for 6 hrs by Hoechst 33342 staining based immunofluorescence analysis; assay type: functional, cell-based
SAOS-2 [4] = experiment: Binding affinity to p53 […] mutant in human SAOS-2 cells assessed as thermal stabilization at 5 uM at 40 to 43 degreeC incubated for 1 hr by CETSA based Western blot analysis; assay type: cell-based
[5] = Induction of apoptosis in human SAOS-2 cells harboring p53 […] mutant assessed as viable cells at 4 uM incubated for 24 hrs by Annexin V-FITC/PI staining based flow cytometric analysis (reference value: 94.3%); assay type: functional; details: read-out: Activity
[6] = Induction of apoptosis in human SAOS-2 cells harboring p53 […] mutant assessed as early apoptotic cells at 4 uM incubated for 24 hrs by Annexin V-FITC/PI staining based flow cytometric analysis (reference value: 4.1%); assay type: functional
[7] = Induction of apoptosis in human SAOS-2 cells harboring p53 […] mutant assessed as late apoptotic cells at 4 uM incubated for 24 hrs by Annexin V-FITC/PI staining based flow cytometric analysis (reference value: 1.2%); assay type: functional
[8] = Induction of apoptosis in human SAOS-2 cells harboring p53 […] mutant assessed as necrotic cells at 4 uM incubated for 24 hrs by Annexin V-FITC/PI staining based flow cytometric analysis (reference value: 0.4%); assay type: functional
[9] = Induction of apoptosis in human SAOS-2 cells harboring p53 […] mutant assessed as fold increase in early apoptotic cells at 4 uM incubated for 24 hrs by Annexin V-FITC/PI staining based flow cytometric analysis; assay type: functional
[10] = Induction of apoptosis in human SAOS-2 cells harboring p53 […] mutant assessed as fold increase in late apoptotic cells at 4 uM incubated for 24 hrs by Annexin V-FITC/PI staining based flow cytometric analysis; assay type: functional
HuCCT-1 = experiment: Antitumor activity against human HuCCT-1 cells harboring p53 […] mutant xenografted in male BALB/c Slc-nu/nu mouse model assessed as reduction in tumor volume administered IT(Intratumoral) every other day and measured on day 13 (reference value: 56 to 98 mm3); assay type: functional; details: time 13 day
[11] = Toxicity in male BALB/c Slc-nu/nu mouse assessed as effect on body weight loss administered IT(Intratumoral) every other day and measured after 13 days; details: in vivo, 312 h, time 13 day

Structure (SMILES): C/C=C/C1=C(CO)[C@@H](O)[C@@H]2O[C@]2([C@H](O)C=C(C)C)C1=O
- Activity (SAOS-2 [1]): inactive
- IC50 [2]: > 20000 nM

Structure (SMILES): CC(C)=C[C@@H](O)[C@]12O[C@H]1C(=O)C1=C(C2=O)C2[C@H](C)OC1[C@]13C(=O)[C@@]4([C@H](O)C=C(C)C)O[C@H]4C(=O)C1=CO[C@@H](C)[C@H]23 (some centres not stated)
- Activity (SAOS-2 [3]): Active
- IC50 [2]: 1100 nM

Structure (SMILES): C/C=C/C1=C(CO)C(=O)[C@@H]2O[C@]2([C@H](O)C=C(C)C)C1=O
- IC50 [2]: 920 nM

Structure (SMILES): CC(C)=C[C@@H](O)[C@]12O[C@H]1[C@H](O)C1=C(C2=O)C2C(C)OC1[C@]13C(=O)[C@@]4([C@H](O)C=C(C)C)O[C@H]4[C@H](O)C1=CO[C@@H](C)[C@H]23 (some centres not stated)
- IC50 [2]: > 20000 nM

Structure (SMILES): CC(C)=C[C@@H](O)[C@]12O[C@H]1C(=O)C1=C(C2=O)C2[C@@H]3[C@@H](C)OC=C4C(=O)[C@@H]5O[C@]5([C@H](O)C=C(C)C)C(=O)[C@]43C1O[C@@H]2C (some centres not stated)
- Activity (SAOS-2 [3]): Active
- Activity (SAOS-2 [4]): Active
- IC50 [2]: 1000 nM
- viability at 4 µM [5]: 80%
- Activity [6]: 13.6%
- Activity [7]: 5.7%
- Activity [8]: 0.7%
- fold change (FC) [9]: 3.3
- fold change (FC) [10]: 4.8
- Activity (HuCCT-1): 140 mm3
- Activity [11]: Non-toxic
